Experimental data taken from article PMC8541628, “Development of Novel Quinoline-Based Sulfonamides as Selective Cancer-Associated Carbonic Anhydrase Isoform IX Inhibitors” (International Journal of Molecular Sciences, 2021).
Where two headings read alike, the source gives them in different places.

Assays:
Bax = Bax expression level (ELISA) in MCF-7 cells; type: cell-based, human; conditions: 24 h incubation
Procedure: (§1) The levels of two members of Bcl-2 family proteins, the anti-apoptotic Bcl-2 protein, and the counteracting pro-apoptotic Bax protein, as well as the level of active caspase-3 (a key executioner protease) in MDA-MB-231 and MCF-7 cells have been assessed after incubation with QBS 11c and 13b for 24 h.
(§2) All adopted procedures for the conducted in vitro biological assays were performed as described earlier; CA (stopped-flow), cytotoxicity (MTT [37, 38]), and assessment of apoptotic markers assays, as well as induction of hypoxia with cobalt chloride, and were mentioned in the Supporting Materials. […]
(§3) monolay er. Cell monolay ers were treated in quadrates with vehicle (DMSO, 0.1% v/v), test samples or Adriamycin as positive control for an exposure time of 72 h. At the end of exposure, MTT solution in PBS (5 mg/ml) was then added to all well including no cell blank and left to incubate for 90 min. The formation of formazan crystals were visually confirmed using phase contract microscopy. DMSO (100 µl/well) was added to dissolve the formazan crystals with shaking for 10 min after which the absorbance was read at 590 nm against no cell blanks on a FLuo Star Optima microplate reader (BMG technologies, Germany). Cell proliferation was calculated comparing the OD values of the DMSO control wells and those of the samples represented as % proliferation to the control. Dose-response experiment was performed on samples producing > or =50% loss of cell proliferation using five serial 2-fold dilutions (50, 25, 12.5, 6.25 and 3.125 µM) of the sample. IC50 values (concentration of sample causing 50% loss of cell proliferation of the vehicle control) were calculated using non-linear regression curve fitting of the dose response plots on GraphPad Prism V.6.0 software.
(§4) 3. Assessment of Apo ptotic Markers Levels
(§5) The levels of the pro-apoptotic markers (Bax and active caspase-3) as well as the anti-apoptotic marker Bcl-2 were determined using ELISA kits; Human Bax ELISA Kit (EIA-4487) DRG® Instruments, Bcl-2 ELISA Kit (99–0042), Zymed® Laboratories, Invitrogen Immunodetection, and Human Caspase-3 (active) ELISA Kit (KHO1091) Invitrogen®, per the manufacturer’s instructions. Breast cancer MDA-MB-231 and MCF-7 cells were cultured as a monolayer in T-25 flasks and were seeded to attain 30% confluency prior to treatment. Cells were then treated separately with MBFS 11b at its IC50 concentration for 24 h. […]
(§6) captured protein, forming a “sandwich” of specific antibodies around the desired protein in the cell lysate. […] The HRP domain reacted with the added TMB substrate to form a colored product that measured at 450 nm by a plate reader ChroMate-4300 after the reaction was terminated via the addition of stop solution. […]

MDA-MB-231 = test: 72 h MTT anti-proliferative assay under hypoxic conditions, MDA-MB-231; type: cell-based; conditions: Homo sapiens, mean ± S.D. of three experiments
From the text: 1. Carbonic anhydrase inhibition assay
The enzymes are recombinant proteins prepared in our lab.
parameters and inhibition constants.
2. Anti-proliferative action toward human breast cell lines

active caspase-3 = active caspase-3 level (ELISA) in MCF-7 cells; type: cell-based, human; conditions: 24 h incubation
Procedure: as §1, §2, §3, §4, §5, §6

Bcl-2 = Bcl-2 expression level (ELISA) in MDA-MB-231 cells; type: cell-based, human; conditions: for Bcl-2 / Bcl-2, folds of control: 24 h incubation; for decrease in the expression level of Bcl-2 protein: in comparison to the untreated control
Procedure: as §1, §2, §4
The levels of the pro-apoptotic markers (Bax and active caspase-3) as well as the anti-apoptotic marker Bcl-2 were determined using ELISA kits; Human Bax ELISA Kit (EIA-4487) DRG® Instruments, Bcl-2 ELISA Kit (99–0042), Zymed® Laboratories, Invitrogen Immunodetection, and Human Caspase-3 (active) ELISA Kit (KHO1091) Invitrogen®, per the manufacturer’s instructions. Breast cancer MDA-MB-231 and MCF-7 cells were cultured as a monolayer in T-25 flasks and were seeded to attain 30% confluency prior to treatment. Cells were then treated separately with MBFS 11b at its IC50 concentration for 24 h. At the end of treatment, cells were collected via trypsinization and centrifuged at 10,000 rpm. The pellet was then rinsed with PBS and lysed in RIPA lysis buffer at 4 °C for 45 min, then centrifuged at 14,000 rpm for 20 min to remove the cellular debris. Lysates were then collected and stored at −80 °C for later protein determination using Pierce BCA Protein Assay Kit according to manufacturer’s recommendations.
The cell lysate was diluted 10 times, and 100 μL ([…]) was added to the wells of […] separate microtiter plates for the three ELISA kits th at were pre-coated with primary antibodies specific to Bax, Bcl-2, and caspase-3 proteins, respectively. A secondary biotin-linked antibody specific to the protein captured by the primary antibody was further added to bind the […]
captured protein, forming a “sandwich” of specific antibodies around the desired protein in the cell lysate. The streptavidin-HRP complex was then used to bind the biotin-linked secondary antibody through its streptavidin portion. The HRP domain reacted with the added TMB substrate to form a colored product that measured at 450 nm by a plate reader ChroMate-4300 after the reaction was terminated via the addition of stop solution. […]
The ligand 3D structures were prepared by Maestro and their ionization states was checked with Epik at pH 7.4±0.5 then they were subjected to energy minimization using OPLS3 force field in Macromodel with a maximum number of 2500 conjugate gradient iteration and a convergence of 0.05 kcal mol−1 A−1. Glide with default parameters was u sed to generate th e docking g rid setting the center of the co-crystallized lig and s as grid center. Docking was performed using the standard precision mode (SP) implemented in Glide and the top 5 poses for each ligand were returned. Prime MMGBSA was used for the refinement of the best pose for each ligand, using VSGB solvation model setting the receptor flexible within 3 A around the ligand.

hCA IX = hCA IX (Homo sapiens, UniProt Q16790); test: stopped flow carbon dioxide hydrase assay, hCA IX; conditions: for Selectivity ratio I/IX: hCA IX over hCA I; for Selectivity ratio II/IX: hCA IX over hCA II

SMILES	BAX (Bax)	BAX, folds of control (Bax)	IC50 (MDA-MB-231) [nM]	Active Caspase-3 (active caspase-3)	Active Caspase-3, folds of control (active caspase-3)	Bcl-2 (Bcl-2)	Bcl-2, folds of control (Bcl-2)	decrease in the expression level of Bcl-2 protein (Bcl-2) [%]	Selectivity ratio I/IX (hCA IX)	Selectivity ratio II/IX (hCA IX)	Ki (hCA IX; read-out: KI CA IX, stopped flow technique, mean from 3 different assays) [nM]	melting point [°C]	Ki (hCA IX) [nM]
NS(=O)(=O)c1cccc(Nc2ccnc3ccc(Cl)cc23)c1 [11c, 3-((6-chloroquinolin-4-yl)amino)benzenesulfonamide]	512.9 ± 11.7 Pg/mg of Total Protein	5.36 folds of control	1030 ± 50	17.83 ± 0.62 Pg/mg of Total Protein	3.64 folds of control	6.45 ± 0.17 Pg/mg of Total Protein	0.45 folds of control	55	52.7	18.4	8.4	–	–
COc1ccc2nccc(Nc3ccc(S(N)(=O)=O)cc3)c2c1 [13b, 4-((6-methoxyquinolin-4-yl)amino)benzenesulfonamide]	443.9 ± 10.2 Pg/mg of Total Protein	4.64 folds of control	2240 ± 100	14.82 ± 0.43 Pg/mg of Total Protein	3.02 folds of control	5.304 ± 0.13 Pg/mg of Total Protein	0.37 folds of control	63	16.7	10.6	–	250 to 252	5.5
